Test results: patent US10988478B1, “Pyrazolo[1,5a]pyrimidine derivatives as IRAK4 modulators” (Genentech, Inc., priority 2015, dated 2021)

These compounds were tested against human IRAK4 (Homo sapiens (Human), UniProt Q9NWZ3) (assay: IRAK4 kinase inhibition, Transcreener fluorescence polarization ADP assay). Conditions: recombinant full-length His6-IRAK4; 125 uM ATP; 90 min; Ki computed using ATP Km 642 uM.
Assay type: biochemical
Procedure: Compounds were assayed for inhibition of human IRAK4 and IRAK1 catalytic activity using recombinant enzyme produced from insect cells. Full-length IRAK4 protein, carrying an N-terminal His6-Tag, was obtained from Life Technologies (Carlsbad, Calif., USA). The IRAK1 construct was produced internally and was comprised of IRAK1 residues Arg194 to Ser712, preceded by an NH2-terminal His6 tag and the coding sequence for glutathione-S-transferase.

human IRAK4, sequence (Q9NWZ3 whole entry): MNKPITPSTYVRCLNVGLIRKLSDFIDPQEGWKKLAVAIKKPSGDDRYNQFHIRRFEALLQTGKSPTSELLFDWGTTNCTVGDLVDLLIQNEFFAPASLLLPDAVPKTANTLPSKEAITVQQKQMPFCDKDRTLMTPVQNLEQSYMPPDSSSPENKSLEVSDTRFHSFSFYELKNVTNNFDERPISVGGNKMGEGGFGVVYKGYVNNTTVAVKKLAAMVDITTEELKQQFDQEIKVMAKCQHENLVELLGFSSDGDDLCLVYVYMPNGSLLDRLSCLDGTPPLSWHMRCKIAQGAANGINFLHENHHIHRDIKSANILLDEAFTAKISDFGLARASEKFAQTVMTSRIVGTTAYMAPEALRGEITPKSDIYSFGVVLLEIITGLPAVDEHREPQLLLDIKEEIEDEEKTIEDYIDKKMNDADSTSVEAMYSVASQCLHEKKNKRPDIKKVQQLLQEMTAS

| SMILES | Ki [µM] |
| --- | --- |
| O=C(Nc1cc2c(cc1N1CCOCC1)OCCN2)c1cnn2cccnc12 [Example 9, N-(7-Morpholino-3,4-dihydro-2H-benzo[b][1,4]oxazin-6-yl)pyrazolo[1,5-a]pyrimidine-3-carboxamide] | 0.098 |
| CC1COc2cc(N3CCOCC3)c(NC(=O)c3cnn4cccnc34)cc2N1 (centres unmarked) [Example 10, N-(3-Methyl-7-morpholino-3,4-dihydro-2H-benzo[b][1,4]oxazin-6-yl)pyrazolo[1,5-a]pyrimidine-3-carboxamide] | 0.27 |
| CC1CNc2cc(NC(=O)c3cnn4cccnc34)c(N3CCOCC3)cc2O1 (centres unmarked) [Example 11, N-(2-Methyl-7-morpholino-3,4-dihydro-2H-benzo[b][1,4]oxazin-6-yl)pyrazolo[1,5-a]pyrimidine-3-carboxamide] | 0.072 |
| Cc1cnc2c(C(=O)Nc3cc4c(cc3N3CCC(CO)CC3)OC(C)(C)C4)cnn2c1 [Example 12, N-(6-(4-(Hydroxymethyl)piperidin-1-yl)-2,2-dimethyl-2,3-dihydrobenzofuran-5-yl)-6-methylpyrazolo[1,5-a]pyrimidine-3-carboxamide] | 0.002 |
| CC1(C)Cc2cc(NC(=O)c3cnn4cccnc34)c(N3CC[C@H](CO)C3)cc2O1 [Example 13, (S)—N-(6-(3-(hydroxymethyl)pyrrolidin-1-yl)-2,2-dimethyl-2,3-dihydrobenzofuran-5-yl)pyrazolo[1,5-a]pyrimidine-3-carboxamide] | 0.0067 |
| CC1Cc2cc(NC(=O)c3cnn4cccnc34)c(N3CCOCC3)cc2O1 (centres unmarked) [Example 14, N-(2-Methyl-6-morpholino-2,3-dihydrobenzofuran-5-yl)pyrazolo[1,5-a]pyrimidine-3-carboxamide] | 0.019 |
| CC1(C)Cc2cc(NC(=O)c3cnn4cccnc34)c(N3CC[C@@H](CO)C3)cc2O1 [Example 15, (R)—N-(6-(3-(Hydroxymethyl)pyrrolidin-1-yl)-2,2-dimethyl-2,3-dihydrobenzofuran-5-yl)pyrazolo[1,5-a]pyrimidine-3-carboxamide] | 0.012 |
| Cc1cnc2c(C(=O)Nc3cc4c(cc3N3CCC(CO)CC3)OC(C)(CO)C4)cnn2c1 (centres unmarked) [Example 16, N-(2-(Hydroxymethyl)-6-(4-(hydroxymethyl)piperidin-1-yl)-2-methyl-2,3-dihydrobenzofuran-5-yl)-6-methylpyrazolo[1,5-a]pyrimidine-3-carboxamide] | 0.0019 |
| CC1(C)CN(c2cc3c(cc2NC(=O)c2cnn4cccnc24)CC(C)(CO)O3)CCO1 (centres unmarked) [Example 17, N-(6-(2,2-Dimethylmorpholino)-2-(hydroxymethyl)-2-methyl-2,3-dihydrobenzofuran-5-yl)pyrazolo[1,5-a]pyrimidine-3-carboxamide] | 0.18 |
| CC1(CO)CCN(c2cc3c(cc2NC(=O)c2cnn4cccnc24)CC(C)(C)O3)C1 (centres unmarked) [Example 18, N-(6-(3-(Hydroxymethyl)-3-methylpyrrolidin-1-yl)-2,2-dimethyl-2,3-dihydrobenzofuran-5-yl)pyrazolo[1,5-a]pyrimidine-3-carboxamide] | 0.021 |
| CC1(CO)Cc2cc(NC(=O)c3cnn4cccnc34)c(N3CCN(CC(F)F)CC3)cc2O1 (centres unmarked) [Example 19, N-[6-[4-(2,2-Difluoroethyl)piperazin-1-yl]-2-(hydroxymethyl)-2-methyl-3H-benzofuran-5-yl]pyrazolo[1,5-a]pyrimidine-3-carboxamide] | 0.0033 |
| CNC[C@H]1OC[C@@H](c2cc3c(cc2NC(=O)c2cnn4cccnc24)CC(C)(C)O3)CO1 [Example 20, Cis-N-[2,2-dimethyl-6-[2-(methylaminomethyl)-1,3-dioxan-5-yl]-3H-benzofuran-5-yl]pyrazolo[1,5-a]pyrimidine-3-carboxamide] | 0.78 |
| CCC1(C)Cc2cc(NC(=O)c3cnn4cccnc34)c(N3CCOCC3)cc2O1 (centres unmarked) [Example 21, N-(2-Ethyl-2-methyl-6-morpholino-2,3-dihydrobenzofuran-5-yl)pyrazolo[1,5-a]pyrimidine-3-carboxamide] | 0.0064 |
| CN(C)C(=O)C1(C)Cc2cc(NC(=O)c3cnn4cccnc34)c(N3CCOCC3)cc2O1 (centres unmarked) [Example 23, N-(2-(Dimethylcarbamoyl)-2-methyl-6-morpholino-2,3-dihydrobenzofuran-5-yl)pyrazolo[1,5-a]pyrimidine-3-carboxamide] | 0.031 |
| CC1(C)Cc2cc(NC(=O)c3cnn4cccnc34)c(N3CCC(C(N)C(F)(F)F)CC3)cc2O1 (centres unmarked) [Example 24, N-[6-[4-(1-Amino-2,2,2-trifluoro-ethyl)-1-piperidyl]-2,2-dimethyl-3H-benzofuran-5-yl]pyrazolo[1,5-a]pyrimidine-3-carboxamide] | 0.0029 |
| COCC1(C)Cc2cc(NC(=O)c3cnn4cccnc34)c(N3CCOCC3)cc2O1 (centres unmarked) [Example 25, N-(2-(Methoxymethyl)-2-methyl-6-morpholino-2,3-dihydrobenzofuran-5-yl)pyrazolo[1,5-a]pyrimidine-3-carboxamide] | 0.01 |

| SMILES | Ki [µM] |
| --- | --- |
| CC1(CO)Cc2cc(NC(=O)c3cnn4cccnc34)c(N3CCC(F)(F)CC3)cc2O1 (centres unmarked) [Example 26, N-[6-(4,4-Difluoro-1-piperidyl)-2-(hydroxymethyl)-2-methyl-3H-benzofuran-5-yl]pyrazolo[1,5-a]pyrimidine-3-carboxamide] | 0.0051 |
| Cc1cnc2c(C(=O)Nc3cc4c(cc3N3CCOCC3)O[C@@](C)(CO)C4)cnn2c1 [Example 29, (R)—N-(2-(hydroxymethyl)-2-methyl-6-morpholino-2,3-dihydrobenzofuran-5-yl)-6-methylpyrazolo[1,5-a]pyrimidine-3-carboxamide] | 0.009 |
| Cc1cnc2c(C(=O)Nc3cc4c(cc3N3CCOCC3)O[C@](C)(CO)C4)cnn2c1 [Example 30, (S)—N-(2-(hydroxymethyl)-2-methyl-6-morpholino-2,3-dihydrobenzofuran-5-yl)-6-methylpyrazolo[1,5-a]pyrimidine-3-carboxamide] | 0.032 |
| CC1(C)Cc2cc(NC(=O)c3cnn4cccnc34)c(N3CCOCC3)cc2O1 [Example 33, N-(2,2-dimethyl-6-morpholino-2,3-dihydrobenzofuran-5-yl)pyrazolo[1,5-a]pyrimidine-3-carboxamide] | 0.005 |
| COc1cc2c(cc1NC(=O)c1cnn3cccnc13)CC(C)(C)O2 [Example 34, N-(6-Methoxy-2,2-dimethyl-2,3-dihydrobenzofuran-5-yl)pyrazolo[1,5-a]pyrimidine-3-carboxamide] | 0.038 |
| O=C(Nc1cc2c(cc1N1CCOCC1)OCCCN2)c1cnn2cccnc12 [Example 35, N-(8-Morpholino-2,3,4,5-tetrahydrobenzo[b][1,4]oxazepin-7-yl)pyrazolo[1,5-a]pyrimidine-3-carboxamide] | 0.69 |
| CC1(C)CN(c2cc3c(cc2NC(=O)c2cnn4cccnc24)C[C@](C)(CO)O3)CCO1 [Example 36, (R)—N-(6-(2,2-dimethylmorpholino)-2-(hydroxymethyl)-2-methyl-2,3-dihydrobenzofuran-5-yl)pyrazolo[1,5-a]pyrimidine-3-carboxamide] | 0.15 |
| CC1(C)CN(c2cc3c(cc2NC(=O)c2cnn4cccnc24)C[C@@](C)(CO)O3)CCO1 [Example 37, (S)—N-(6-(2,2-dimethylmorpholino)-2-(hydroxymethyl)-2-methyl-2,3-dihydrobenzofuran-5-yl)pyrazolo[1,5-a]pyrimidine-3-carboxamide] | 0.37 |
| CC1(C(=O)O)Cc2cc(NC(=O)c3cnn4cccnc34)c(N3CCOCC3)cc2O1 (centres unmarked) [Example 38, 2-Methyl-6-morpholino-5-(pyrazolo[1,5-a]pyrimidine-3-carboxamido)-2,3-dihydrobenzofuran-2-carboxylicacid] | 0.36 |
| O=C(Nc1cc2c(cc1N1CCOCC1)OC1(CCOCC1)C2)c1cnn2cccnc12 [Example 39, N-(6-Morpholino-2′,3′,5′,6′-tetrahydro-3H-spiro[benzofuran-2,4′-pyran]-5-yl)pyrazolo[1,5-a]pyrimidine-3-carboxamide] | 0.011 |
| CC1(C)Cc2cc(NC(=O)c3cnn4cccnc34)c(N3CCC(F)(CO)CC3)cc2O1 [Example 40, N-(6-(4-Fluoro-4-(hydroxymethyl)piperidin-1-yl)-2,2-dimethyl-2,3-dihydrobenzofuran-5-yl)pyrazolo[1,5-a]pyrimidine-3-carboxamide] | 0.001 |
| CC1(C)Cc2cc(NC(=O)c3cnn4cccnc34)c(N3CCS(=O)(=O)CC3)cc2O1 [Example 41, N-[6-(1,1-Dioxo-thiomorpholin-4-yl)-2,2-dimethyl-2,3-dihydro-1-benzofuran-5-yl]pyrazolo[1,5-a]pyrimidine-3-carboxamide] | 0.084 |
| C[C@]1(CO)Cc2cc(NC(=O)c3cnn4cccnc34)c(N3C[C@H]4C[C@@H]3CO4)cc2O1 [Example 42, N—((R)-6-((1R,4R)-2-Oxa-5-azabicyclo[2.2.1]heptan-5-yl)-2-(hydroxymethyl)-2-methyl-2,3-dihydrobenzofuran-5-yl)pyrazolo[1,5-a]pyrimidine-3-carboxamide] | 0.2 |
| C[C@@]1(CO)Cc2cc(NC(=O)c3cnn4cccnc34)c(N3C[C@H]4C[C@@H]3CO4)cc2O1 [Example 43, N—((S)-6-((1R,4R)-2-Oxa-5-azabicyclo[2.2.1]heptan-5-yl)-2-(hydroxymethyl)-2-methyl-2,3-dihydrobenzofuran-5-yl)pyrazolo[1,5-a]pyrimidine-3-carboxamide] | 0.13 |
| C[C@]1(CO)Cc2cc(NC(=O)c3cnn4cccnc34)c(N3C[C@@H]4C[C@H]3CO4)cc2O1 [Example 47, N—((R)-6-((1S,4S)-2-Oxa-5-azabicyclo[2.2.1]heptan-5-yl)-2-(hydroxymethyl)-2-methyl-2,3-dihydrobenzofuran-5-yl)pyrazolo[1,5-a]pyrimidine-3-carboxamide] | 0.18 |
| CNC(=O)[C@]1(C)Cc2cc(NC(=O)c3cnn4cccnc34)c(N3CCOCC3)cc2O1 [Example 48, (S)—N-(2-Methyl-2-(methylcarbamoyl)-6-morpholino-2,3-dihydrobenzofuran-5-yl)pyrazolo[1,5-a]pyrimidine-3-carboxamide] | 0.19 |
